# Target: T1, CDK2/cyclin E1 (Homo sapiens, UniProt P24941)
# T1 construct: purchased Thermo Fisher Scientific (Life Technologies) SelectScreen
# Test: SelectScreen LanthaScreen
# Type: binding
# Details: 1 µM
# Procedure, shortened: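 Percent values come from Thermo SelectScreen profiling of NU5455, combining activity and binding assays. CSF1R was run in Z'LYTE format at Km app ATP, and CAMK1 in Adapta format with ATP listed at 10.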
compound,measurement,value
CN(C(=O)CN1CCOCC1)c1ccc2sc3c(-c4cccc5c(=O)cc(N6CC7CCC(C6)O7)oc45)cccc3c2c1 [NU5455],% displacement,2.7%
